ChEMBL document CHEMBL4507279, “Data for DCP probe BI-9627” (2021)

Legend:
[1] = tested on: eIF-2-alpha kinase GCN2 (Homo sapiens), Q9P2K8 [S808G]; details: Compound concentration 1000.0 nM
[2] = biological target: Serine/threonine-protein kinase Nek9 (Homo sapiens) (UniProt Q8TD19); details: Compound concentration 1000.0 nM
[3] = biological target: Serine/threonine-protein kinase N1 (Homo sapiens) (UniProt Q16512); details: Compound concentration 1000.0 nM
[4] = biological target: Serine/threonine-protein kinase ULK1 (Homo sapiens) (UniProt O75385); details: Compound concentration 1000.0 nM
[5] = biological target: Cyclin-dependent kinase 16 (Homo sapiens) (UniProt Q00536); details: Compound concentration 1000.0 nM
[6] = tested on: Tyrosine-protein kinase ABL1 (Homo sapiens), P00519 [H396P]; details: Compound concentration 1000.0 nM
[7] = biological target: Serine/threonine-protein kinase VRK2 (Homo sapiens) (UniProt Q86Y07); details: Compound concentration 1000.0 nM
[8] = biological target: Serine/threonine-protein kinase DCLK2 (Homo sapiens) (UniProt Q8N568); details: Compound concentration 1000.0 nM
[9] = biological target: Mitogen-activated protein kinase kinase kinase kinase 5 (Homo sapiens) (UniProt Q9Y4K4); details: Compound concentration 1000.0 nM
[10] = biological target: Cyclin-dependent kinase 4 (Homo sapiens) (UniProt P11802); details: Compound concentration 1000.0 nM
[11] = biological target: Mitogen-activated protein kinase kinase kinase 7 (Homo sapiens) (UniProt O43318); details: Compound concentration 1000.0 nM
[12] = biological target: Tyrosine-protein kinase JAK1 (Homo sapiens) (UniProt P23458); details: Compound concentration 1000.0 nM
[13] = biological target: Activated CDC42 kinase 1 (Homo sapiens) (UniProt Q07912); details: Compound concentration 1000.0 nM
[14] = biological target: Serine/threonine-protein kinase TAO2 (Homo sapiens) (UniProt Q9UL54); details: Compound concentration 1000.0 nM
[15] = biological target: Activin receptor type-2A (Homo sapiens) (UniProt P27037); details: Compound concentration 1000.0 nM
[16] = biological target: Death-associated protein kinase 1 (Homo sapiens) (UniProt P53355); details: Compound concentration 1000.0 nM
[17] = biological target: Serine/threonine-protein kinase D2 (Homo sapiens) (UniProt Q9BZL6); details: Compound concentration 1000.0 nM
[18] = biological target: Dual specificity tyrosine-phosphorylation-regulated kinase 2 (Homo sapiens) (UniProt Q92630); details: Compound concentration 1000.0 nM
[19] = biological target: Fibroblast growth factor receptor 2 (Homo sapiens) (UniProt P21802); details: Compound concentration 1000.0 nM
[20] = biological target: Mitogen-activated protein kinase kinase kinase 11 (Homo sapiens) (UniProt Q16584); details: Compound concentration 1000.0 nM
[21] = biological target: Serine/threonine-protein kinase ICK (Homo sapiens) (UniProt Q9UPZ9); details: Compound concentration 1000.0 nM
[22] = biological target: SRSF protein kinase 2 (Homo sapiens) (UniProt P78362); details: Compound concentration 1000.0 nM
[23] = biological target: Serine/threonine-protein kinase LATS1 (Homo sapiens) (UniProt O95835); details: Compound concentration 1000.0 nM
[24] = biological target: Tyrosine-protein kinase CSK (Homo sapiens) (UniProt P41240); details: Compound concentration 1000.0 nM
[25] = biological target: Sodium-dependent serotonin transporter (Homo sapiens) (UniProt P31645); details: Compound concentration 10.0 uM
[26] = biological target: Macrophage-stimulating protein receptor (Homo sapiens) (UniProt Q04912); details: Compound concentration 1000.0 nM
[27] = biological target: Protein kinase C theta type (Homo sapiens) (UniProt Q04759); details: Compound concentration 1000.0 nM
[28] = biological target: Mitogen-activated protein kinase kinase kinase kinase 2 (Homo sapiens) (UniProt Q12851); details: Compound concentration 1000.0 nM
[29] = biological target: Tyrosine-protein kinase SYK (Homo sapiens) (UniProt P43405); details: Compound concentration 1000.0 nM
[30] = biological target: Testis-specific serine/threonine-protein kinase 3 (Homo sapiens) (UniProt Q96PN8); details: Compound concentration 1000.0 nM
[31] = biological target: cAMP-dependent protein kinase catalytic subunit beta (Homo sapiens) (UniProt P22694); details: Compound concentration 1000.0 nM
[32] = tested on: Phosphatidylinositol 4,5-bisphosphate 3-kinase catalytic subunit alpha isoform (Homo sapiens), P42336 [M1043I]; details: Compound concentration 1000.0 nM
[33] = biological target: Mitogen-activated protein kinase kinase kinase 20 (Homo sapiens) (UniProt Q9NYL2); details: Compound concentration 1000.0 nM
[34] = biological target: Megakaryocyte-associated tyrosine-protein kinase (Homo sapiens) (UniProt P42679); details: Compound concentration 1000.0 nM
[35] = biological target: Serine/threonine-protein kinase 38-like (Homo sapiens) (UniProt Q9Y2H1); details: Compound concentration 1000.0 nM
[36] = biological target: SRSF protein kinase 1 (Homo sapiens) (UniProt Q96SB4); details: Compound concentration 1000.0 nM
[37] = biological target: Calcium/calmodulin-dependent protein kinase type II subunit gamma (Homo sapiens) (UniProt Q13555); details: Compound concentration 1000.0 nM
[38] = biological target: Bone morphogenetic protein receptor type-1A (Homo sapiens) (UniProt P36894); details: Compound concentration 1000.0 nM
[39] = biological target: Mitogen-activated protein kinase 3 (Homo sapiens) (UniProt P27361); details: Compound concentration 1000.0 nM
[40] = biological target: Serine/threonine-protein kinase D3 (Homo sapiens) (UniProt O94806); details: Compound concentration 1000.0 nM
[41] = tested on: Receptor-type tyrosine-protein kinase FLT3 (Homo sapiens), P36888 [UNDEFINED MUTATION]; details: Compound concentration 1000.0 nM
[42] = biological target: Protein-tyrosine kinase 2-beta (Homo sapiens) (UniProt Q14289); details: Compound concentration 1000.0 nM
[43] = biological target: Mitogen-activated protein kinase kinase kinase 19 (Homo sapiens) (UniProt Q56UN5); details: Compound concentration 1000.0 nM
[44] = tested on: Proto-oncogene tyrosine-protein kinase receptor Ret (Homo sapiens), P07949 [V804L]; details: Compound concentration 1000.0 nM
[45] = tested on: Phosphatidylinositol 4,5-bisphosphate 3-kinase catalytic subunit alpha isoform (Homo sapiens), P42336 [H1047Y]; details: Compound concentration 1000.0 nM

Chain of Mitogen-activated protein kinase kinase kinase kinase 5 (Homo sapiens) (Q9Y4K4 whole entry, looked up): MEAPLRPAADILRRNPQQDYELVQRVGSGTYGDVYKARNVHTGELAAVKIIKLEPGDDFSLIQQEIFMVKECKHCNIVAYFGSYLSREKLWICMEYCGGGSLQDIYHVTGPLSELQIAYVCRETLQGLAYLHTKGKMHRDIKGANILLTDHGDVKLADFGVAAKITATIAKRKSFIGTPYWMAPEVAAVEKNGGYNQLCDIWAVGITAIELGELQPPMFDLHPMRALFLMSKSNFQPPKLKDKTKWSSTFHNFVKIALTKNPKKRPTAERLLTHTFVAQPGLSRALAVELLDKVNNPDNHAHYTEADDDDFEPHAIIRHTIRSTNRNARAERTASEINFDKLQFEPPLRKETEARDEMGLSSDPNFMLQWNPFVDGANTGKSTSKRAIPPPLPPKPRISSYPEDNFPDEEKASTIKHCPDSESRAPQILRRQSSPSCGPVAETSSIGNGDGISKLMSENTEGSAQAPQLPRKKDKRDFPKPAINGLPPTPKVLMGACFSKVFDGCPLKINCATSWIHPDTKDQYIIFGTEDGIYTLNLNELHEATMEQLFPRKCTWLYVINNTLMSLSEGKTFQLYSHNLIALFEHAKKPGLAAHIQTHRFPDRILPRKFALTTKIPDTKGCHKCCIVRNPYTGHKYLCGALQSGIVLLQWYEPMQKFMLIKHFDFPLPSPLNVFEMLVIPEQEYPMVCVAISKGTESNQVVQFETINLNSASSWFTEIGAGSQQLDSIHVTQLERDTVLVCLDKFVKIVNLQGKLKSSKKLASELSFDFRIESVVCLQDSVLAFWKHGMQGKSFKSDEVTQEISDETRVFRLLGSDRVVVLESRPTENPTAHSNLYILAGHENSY
Chain of Mitogen-activated protein kinase kinase kinase 7 (Homo sapiens) (O43318 whole entry): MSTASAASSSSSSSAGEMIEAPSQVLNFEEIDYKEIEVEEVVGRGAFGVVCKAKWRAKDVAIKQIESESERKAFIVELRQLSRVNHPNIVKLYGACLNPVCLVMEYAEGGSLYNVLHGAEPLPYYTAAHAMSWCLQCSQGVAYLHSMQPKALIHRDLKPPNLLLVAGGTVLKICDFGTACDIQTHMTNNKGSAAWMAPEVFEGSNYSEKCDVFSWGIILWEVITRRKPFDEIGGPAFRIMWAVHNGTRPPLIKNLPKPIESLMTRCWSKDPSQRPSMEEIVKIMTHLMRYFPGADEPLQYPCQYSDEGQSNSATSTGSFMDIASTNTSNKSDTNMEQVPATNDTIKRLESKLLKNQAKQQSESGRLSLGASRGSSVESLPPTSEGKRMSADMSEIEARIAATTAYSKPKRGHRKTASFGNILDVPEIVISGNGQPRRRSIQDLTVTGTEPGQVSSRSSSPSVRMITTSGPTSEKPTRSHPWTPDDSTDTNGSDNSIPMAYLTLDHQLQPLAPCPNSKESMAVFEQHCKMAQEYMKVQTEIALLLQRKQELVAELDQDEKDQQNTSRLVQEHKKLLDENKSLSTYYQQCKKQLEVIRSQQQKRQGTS
Chain of Tyrosine-protein kinase JAK1 (Homo sapiens) (P23458 whole entry): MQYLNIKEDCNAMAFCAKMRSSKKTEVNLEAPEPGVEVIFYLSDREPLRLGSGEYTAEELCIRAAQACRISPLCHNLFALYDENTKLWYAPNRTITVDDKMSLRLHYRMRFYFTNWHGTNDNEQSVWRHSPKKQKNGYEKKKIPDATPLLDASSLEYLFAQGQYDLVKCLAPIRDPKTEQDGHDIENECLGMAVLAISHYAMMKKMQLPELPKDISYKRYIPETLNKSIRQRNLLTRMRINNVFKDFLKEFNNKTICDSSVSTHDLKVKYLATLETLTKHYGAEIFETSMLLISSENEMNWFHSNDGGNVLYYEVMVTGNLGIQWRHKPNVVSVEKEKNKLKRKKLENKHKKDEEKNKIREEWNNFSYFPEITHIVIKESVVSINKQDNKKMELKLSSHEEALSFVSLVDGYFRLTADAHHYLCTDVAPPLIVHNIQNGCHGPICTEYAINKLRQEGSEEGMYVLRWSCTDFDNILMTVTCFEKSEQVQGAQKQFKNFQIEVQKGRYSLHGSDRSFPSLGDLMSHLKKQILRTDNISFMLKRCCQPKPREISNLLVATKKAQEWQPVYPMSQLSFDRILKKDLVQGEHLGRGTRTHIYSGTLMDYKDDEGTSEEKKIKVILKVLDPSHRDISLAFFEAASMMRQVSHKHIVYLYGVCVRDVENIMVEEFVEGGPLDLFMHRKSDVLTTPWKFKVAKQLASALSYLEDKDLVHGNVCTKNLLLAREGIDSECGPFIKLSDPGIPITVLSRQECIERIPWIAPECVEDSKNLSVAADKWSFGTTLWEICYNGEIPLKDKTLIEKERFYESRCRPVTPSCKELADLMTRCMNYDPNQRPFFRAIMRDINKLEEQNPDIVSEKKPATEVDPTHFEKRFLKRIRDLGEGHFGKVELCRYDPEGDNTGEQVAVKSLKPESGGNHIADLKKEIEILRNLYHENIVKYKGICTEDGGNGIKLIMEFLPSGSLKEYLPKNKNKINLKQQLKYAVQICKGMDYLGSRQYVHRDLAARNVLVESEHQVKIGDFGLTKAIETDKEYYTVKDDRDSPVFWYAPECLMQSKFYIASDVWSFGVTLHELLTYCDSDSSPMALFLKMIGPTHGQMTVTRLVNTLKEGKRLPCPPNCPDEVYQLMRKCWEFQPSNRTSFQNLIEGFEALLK
Chain of Death-associated protein kinase 1 (Homo sapiens) (P53355 whole entry, looked up): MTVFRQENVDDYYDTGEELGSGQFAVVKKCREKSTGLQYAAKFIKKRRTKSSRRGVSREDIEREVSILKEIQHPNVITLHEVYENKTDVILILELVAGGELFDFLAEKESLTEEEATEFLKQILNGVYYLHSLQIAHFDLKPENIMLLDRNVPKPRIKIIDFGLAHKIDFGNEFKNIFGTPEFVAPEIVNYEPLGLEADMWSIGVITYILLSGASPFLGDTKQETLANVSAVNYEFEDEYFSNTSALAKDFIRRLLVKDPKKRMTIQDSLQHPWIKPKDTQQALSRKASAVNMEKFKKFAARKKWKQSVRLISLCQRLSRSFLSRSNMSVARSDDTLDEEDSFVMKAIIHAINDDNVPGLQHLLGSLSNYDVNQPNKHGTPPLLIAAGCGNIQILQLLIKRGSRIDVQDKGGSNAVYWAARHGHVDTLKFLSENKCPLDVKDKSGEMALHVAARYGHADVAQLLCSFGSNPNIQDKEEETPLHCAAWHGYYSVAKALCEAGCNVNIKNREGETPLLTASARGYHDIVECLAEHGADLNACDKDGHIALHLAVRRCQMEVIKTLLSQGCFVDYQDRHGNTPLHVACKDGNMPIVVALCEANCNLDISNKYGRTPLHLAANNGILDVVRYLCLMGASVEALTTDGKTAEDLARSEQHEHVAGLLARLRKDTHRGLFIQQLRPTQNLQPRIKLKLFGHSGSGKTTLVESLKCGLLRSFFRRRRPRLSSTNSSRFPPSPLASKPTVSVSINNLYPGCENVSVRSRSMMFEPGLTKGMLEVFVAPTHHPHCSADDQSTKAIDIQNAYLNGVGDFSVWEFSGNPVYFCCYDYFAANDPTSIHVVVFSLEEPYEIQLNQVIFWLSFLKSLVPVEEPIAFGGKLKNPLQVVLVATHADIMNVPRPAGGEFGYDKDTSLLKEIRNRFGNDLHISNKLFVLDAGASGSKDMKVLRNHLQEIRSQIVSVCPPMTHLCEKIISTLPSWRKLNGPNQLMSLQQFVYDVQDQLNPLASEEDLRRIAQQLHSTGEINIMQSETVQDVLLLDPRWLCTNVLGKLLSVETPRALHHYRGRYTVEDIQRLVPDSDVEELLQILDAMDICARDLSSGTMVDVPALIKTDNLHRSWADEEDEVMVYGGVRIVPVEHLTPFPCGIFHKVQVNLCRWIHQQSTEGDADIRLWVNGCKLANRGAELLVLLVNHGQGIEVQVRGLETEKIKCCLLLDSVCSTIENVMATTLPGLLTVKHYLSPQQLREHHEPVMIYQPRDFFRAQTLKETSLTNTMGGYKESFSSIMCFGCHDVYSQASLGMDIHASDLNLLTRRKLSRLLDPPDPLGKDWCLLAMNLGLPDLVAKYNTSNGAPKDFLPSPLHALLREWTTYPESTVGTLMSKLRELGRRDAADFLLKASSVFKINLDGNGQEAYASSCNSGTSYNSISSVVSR
Chain of Testis-specific serine/threonine-protein kinase 3 (Homo sapiens) (Q96PN8 whole entry): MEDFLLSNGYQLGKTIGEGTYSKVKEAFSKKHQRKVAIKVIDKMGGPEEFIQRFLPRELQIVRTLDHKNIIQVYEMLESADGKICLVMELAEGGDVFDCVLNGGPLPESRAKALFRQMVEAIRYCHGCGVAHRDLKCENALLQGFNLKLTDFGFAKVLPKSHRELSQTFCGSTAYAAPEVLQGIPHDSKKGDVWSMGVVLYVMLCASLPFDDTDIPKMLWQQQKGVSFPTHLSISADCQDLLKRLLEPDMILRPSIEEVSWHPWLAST
Chain of Protein kinase C theta type (Homo sapiens) (Q04759 whole entry, looked up): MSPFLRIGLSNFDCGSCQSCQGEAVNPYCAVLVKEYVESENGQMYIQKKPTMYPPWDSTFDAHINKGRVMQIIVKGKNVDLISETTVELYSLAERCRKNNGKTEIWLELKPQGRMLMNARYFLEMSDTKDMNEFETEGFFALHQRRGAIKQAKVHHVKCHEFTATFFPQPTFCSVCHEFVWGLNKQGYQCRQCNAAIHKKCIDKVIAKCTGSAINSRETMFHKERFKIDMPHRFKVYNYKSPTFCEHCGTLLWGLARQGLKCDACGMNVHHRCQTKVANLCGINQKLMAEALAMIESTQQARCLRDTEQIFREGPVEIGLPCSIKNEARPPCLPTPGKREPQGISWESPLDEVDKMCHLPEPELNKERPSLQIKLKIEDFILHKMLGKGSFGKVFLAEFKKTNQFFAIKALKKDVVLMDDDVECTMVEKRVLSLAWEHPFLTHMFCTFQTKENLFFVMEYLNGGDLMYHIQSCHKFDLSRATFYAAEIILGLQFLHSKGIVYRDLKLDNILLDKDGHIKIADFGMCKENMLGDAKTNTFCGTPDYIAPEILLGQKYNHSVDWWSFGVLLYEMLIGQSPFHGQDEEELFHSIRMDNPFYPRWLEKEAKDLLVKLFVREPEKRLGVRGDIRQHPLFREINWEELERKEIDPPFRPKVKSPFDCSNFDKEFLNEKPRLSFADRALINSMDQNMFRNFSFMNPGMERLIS

## CC(=O)N1CCC(c2ccc(C(=O)NC3=NCCN3)cc2C(F)(F)F)CC1 [BI 0054]
[1]
  residual activity: 52%
[2]
  residual activity: 100%
[3]
  residual activity: 100%
[4]
  residual activity: 85%
[5]
  residual activity: 84%
[6]
  residual activity: 100%
[7]
  residual activity: 100%
[8]
  residual activity: 88%
[9]
  residual activity: 100%
[10]
  residual activity: 98%
[11]
  residual activity: 100%
[12]
  residual activity: 100%
[13]
  residual activity: 100%
[14]
  residual activity: 100%
[15]
  residual activity: 100%
[16]
  residual activity: 100%
[17]
  residual activity: 100%
[18]
  residual activity: 93%
[19]
  residual activity: 86%
[20]
  residual activity: 100%
[21]
  residual activity: 88%
[22]
  residual activity: 100%
[23]
  residual activity: 93%
[24]
  residual activity: 100%
[25]
  inhibition: 11.8%
[26]
  residual activity: 80%
[27]
  residual activity: 93%
[28]
  residual activity: 100%
[29]
  residual activity: 100%
[30]
  residual activity: 100%
[31]
  residual activity: 100%
[32]
  residual activity: 100%
[33]
  residual activity: 88%
[34]
  residual activity: 100%
[35]
  residual activity: 90%
[36]
  residual activity: 100%
[37]
  residual activity: 100%
[38]
  residual activity: 100%
[39]
  residual activity: 100%
[40]
  residual activity: 100%
[41]
  residual activity: 88%
[42]
  residual activity: 100%
[43]
  residual activity: 100%
[44]
  residual activity: 100%
[45]
  residual activity: 100%

## CC(=O)N1CCC(c2ccc(C(=O)NC(=N)N)cc2C(F)(F)F)CC1 [BI 9627]
[1]
  residual activity: 73%
[2]
  residual activity: 100%
[3]
  residual activity: 87%
[4]
  residual activity: 100%
[5]
  residual activity: 91%
[6]
  residual activity: 60%
[7]
  residual activity: 100%
[8]
  residual activity: 93%
[9]
  residual activity: 100%
[10]
  residual activity: 100%
[11]
  residual activity: 100%
[12]
  residual activity: 100%
[13]
  residual activity: 100%
[14]
  residual activity: 94%
[15]
  residual activity: 100%
[16]
  residual activity: 100%
[17]
  residual activity: 100%
[18]
  residual activity: 89%
[19]
  residual activity: 100%
[20]
  residual activity: 100%
[21]
  residual activity: 94%
[22]
  residual activity: 0%
[23]
  residual activity: 72%
[24]
  residual activity: 100%
[25]
  inhibition: 21.4%
[26]
  residual activity: 97%
[27]
  residual activity: 91%
[28]
  residual activity: 100%
[29]
  residual activity: 100%
[30]
  residual activity: 100%
[31]
  residual activity: 100%
[32]
  residual activity: 100%
[33]
  residual activity: 100%
[34]
  residual activity: 100%
[35]
  residual activity: 99%
[36]
  residual activity: 86%
[37]
  residual activity: 100%
[38]
  residual activity: 100%
[39]
  residual activity: 100%
[40]
  residual activity: 80%
[41]
  residual activity: 80%
[42]
  residual activity: 100%
[43]
  residual activity: 100%
[44]
  residual activity: 97%
[45]
  residual activity: 100%
